Among the data in the supplement of paper PMC7108870 are drug sensitivity score values, retold here.

Assay [1] relates to HEK293sieSTAT3(Y640F). Kind of assay: drug sensitivity score (DSS), cytotoxicity CellTox Green (DSS (dimensionless)); higher = more cytotoxic; extreme values may be limits of the assay. The conditions noted are these: 72 h; STAT3 variant: Y640F (constitutively active). The essentials:
(§1)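 HEK293 cells carrying a STAT3-dependent luciferase reporter and overexpressing wild-type or mutant STAT3 (20 μl at 100,000 cells/ml) were added to compounds acoustically pre-plated at 5 concentrations in 10-fold dilutions in 384-well plates. After 72 hours at 37°C and 5% CO2, CellTox Green fluorescence (485/520 nm) and then CellTiter-Glo luminescence were read on a PHERAstar FS. Values were normalised to negative and positive control wells, and a drug sensitivity score based on dose-response curve area was computed in Breeze. Each value comes from one representative of two experiments.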

For assay [2], the system named is HEK293sieSTAT3(wt). The assay is described as above. The conditions noted are these: 72 h; STAT3 variant: wild type. An outline of the steps:
as §1

For assay [3], the system named is HEK293sieSTAT3(Y640F). Kind of assay: drug sensitivity score (DSS), viability CellTiter-Glo (DSS (dimensionless)); higher = more growth inhibition; extreme values may be limits of the assay. The conditions noted are these: 72 h; STAT3 variant: Y640F (constitutively active). The essentials:
as §1
(In general: Cellular ATP, detected with luciferase, serves as a proxy for viable cell number.)

For assay [4], the system named is HEK293sieSTAT3(wt). Described as above. The conditions noted are these: 72 h; STAT3 variant: wild type. The essentials: as §1

On to `CCc1cc(Nc2nccc(-c3c(-c4ccc(OC)c(C(=O)Nc5c(F)cccc5F)c4)nc4ccccn34)n2)c(OC)cc1N1CCC(N2CCN(S(C)(=O)=O)CC2)CC1` (top concentration tested 10000 nM), for which the drug sensitivity score in assay [1] amounted to 0; in assay [2], 0; in assay [3], 10.9; in assay [4], 9.73.

For the compound `CCc1cncnc1N1CCN(Cc2nc3ccc(C(F)(F)F)cc3[nH]2)CC1` (top concentration tested 10000 nM), the drug sensitivity score in assay [1] is 1.05; in assay [2], 0.48; in assay [3] it was 2.33; in assay [4], 1.35.

As to `CCn1c(-c2nonc2N)nc2cnc(Oc3cccc(NC(=O)c4ccc(OCCN5CCOCC5)cc4)c3)cc21` (top concentration tested 10000 nM), the drug sensitivity score in assay [1] was 0.98; in assay [2], 1.34; in assay [3], 7.47; in assay [4] it was 6.32.

In the case of `CN(c1ccccc1CNc1nc(Nc2ccc3c(c2)CC(=O)N3)ncc1C(F)(F)F)S(C)(=O)=O` (top concentration tested 10000 nM), the drug sensitivity score in assay [1] came to 1.46; in assay [2] it was 6.16; in assay [3] it was 10.1; in assay [4] it was 11.2.

Consider `O=C(O)c1ccc(-c2c[nH]c3ncc(-c4ccccc4)cc23)cc1C1CCCC1` (top concentration tested 10000 nM), for which the drug sensitivity score in assay [1] was 0; in assay [2], 3.29; in assay [3] it was 2.42; in assay [4], 3.17.

In the case of `C[C@@H]1CN(CC(=O)Nc2ccc3c(c2)Cc2cccc(-c4cc(=O)cc(N5CCOCC5)o4)c2S3)C[C@H](C)O1` (top concentration tested 25000 nM), the drug sensitivity score in assay [1] was determined as 5.17; in assay [2], 8.78; in assay [3] it was 8.24; in assay [4] it was 9.16.

Take `NCC(=O)Nc1ccc(-n2nc(C(F)(F)F)cc2-c2ccc3c(ccc4ccccc43)c2)cc1` (top concentration tested 25000 nM): the drug sensitivity score came to 5.9 in assay [1], 7.25 in assay [2], 13.5 in assay [3] and 16.3 in assay [4].

With `Cc1ccc2nc(CN(CCN(Cc3nc4ccc(C)cc4[nH]3)Cc3nc4ccc(C)cc4[nH]3)Cc3nc4ccc(C)cc4[nH]3)[nH]c2c1` (top concentration tested 50000 nM), the drug sensitivity score in assay [1] came to 3.51; in assay [2], 5.64; in assay [3], 4.22; in assay [4] it was 3.52.

Regarding `Cc1nn(C)c(COc2ccc(N3CCN(S(=O)(=O)N(C)C)CC3)cc2)c1-c1cccc2c(CCCOc3cccc4ccccc34)c(C(=O)O)n(CCN3CCOCC3)c12` (top concentration tested 50000 nM), the drug sensitivity score in assay [1] was 7.51; in assay [2], 7.01; in assay [3] it was 9.56; in assay [4], 5.26.

On to `O=c1cc(N2CCOCC2)oc2c(-c3ccccc3)cccc12` (top concentration tested 100000 nM), for which the drug sensitivity score amounted to 2.63 in assay [1], 5.12 in assay [2], 10.6 in assay [3] and 11.8 in assay [4].

As to `Oc1c2ccccc2c2c3c(cccc13)N=N2` (top concentration tested 100000 nM), the drug sensitivity score in assay [1] was found to be 0.97; in assay [2], 2.91; in assay [3], 7.42; in assay [4], 6.18.

As for `Cn1cc(C[C@@H](N)C(=O)O)c2ccccc21` [1-methyl-D-tryptophan] (top concentration tested 5000 nM), the drug sensitivity score in assay [1], in assay [2], in assay [3] and in assay [4] was 0 in each case.

Consider `COc1cc2c(cc1O)CC[C@@H]1[C@@H]2CC[C@]2(C)[C@@H](O)CC[C@@H]12` [2-methoxyestradiol] (top concentration tested 10000 nM), for which the drug sensitivity score in assay [1] stood at 0; in assay [2], 5.9; in assay [3] it was 6.57; in assay [4], 10.6.

As to `CC/C(=C(\c1ccc(O)cc1)c1ccc(OCCN(C)C)cc1)c1ccccc1` [4-hydroxytamoxifen] (top concentration tested 10000 nM), the drug sensitivity score in assay [1] came to 6.81; in assay [2], 7.36; in assay [3], 6.34; in assay [4], 7.39.

For the compound `Nc1ncnc2c1nc(N)n2[C@@H]1O[C@H](CO)[C@@H](O)[C@H]1O` [8-amino-adenosine] (top concentration tested 50000 nM), the drug sensitivity score in assay [1] was found to be 11.1; in assay [2], 15.1; in assay [3] it was 21.9; in assay [4] it was 23.9.

For `Nc1ncnc2c1nc(Cl)n2[C@@H]1O[C@H](CO)[C@@H](O)[C@H]1O` [8-chloro-adenosine] (top concentration tested 50000 nM), the drug sensitivity score in assay [1] was 2.41; in assay [2], 7.97; in assay [3], 16.2; in assay [4] it was 18.4.

With `CCCCC/C=C/C=C1/C(=O)C=C[C@@H]1C/C=C\CCCC(=O)O` [15D-PGJ2] (top concentration tested 3000 nM), the drug sensitivity score in assay [1] was 0; in assay [2] it was 0; in assay [3] it was 1.33; in assay [4] it was 0.

For `COc1cc(O)c2c(c1)/C=C/C[C@H](O)[C@H](O)C(=O)/C=C\C[C@H](C)OC2=O` [(5Z)-7-Oxozeaenol] (top concentration tested 10000 nM), the drug sensitivity score in assay [1] was 2.58; in assay [2], 6.67; in assay [3] it was 3.74; in assay [4], 4.51.

As to `COc1ccc(S(=O)(=O)Nc2cccnc2Nc2ccc(O)cc2)cc1` [ABT-751] (top concentration tested 10000 nM), the drug sensitivity score in assay [1] came to 2.68; in assay [2], 9.49; in assay [3] it was 11.4; in assay [4], 14.3.

Turning to `Cc1ccccc1C(C(=O)NC1CCCCC1)N(C(=O)Cn1ccnc1C)c1cccc(F)c1` (stereo not given) [AGI-5198] (top concentration tested 10000 nM), the drug sensitivity score in assay [1] came to 0; in assay [2], 0; in assay [3] it was 0.76; in assay [4], 1.02.
